Legend:
[1] = Metabolic stability in liver microsomes, mouse; type: in vitro ADME; details: residual ratio of unreacted substance, 0.2 mg/mL microsomes, NADPH generating system
Description: A test solution was prepared by diluting 10 mM DMSO solution of a test substance with acetonitrile by 100 times.
Human and animal liver microsomes (SEKISUI XENOTECH; Human (H2610), Rat (R1000), Mouse (M1000), Monkey (P2000), Dog (D1000)) were adjusted with potassium phosphate buffer (pH 7.4) to 0.2 mg/mL in the reaction system. Then, 1% of the solution of a test substance prepared was added to the reaction system. Thereto was added an NADPH generating system (prepared according to the method of Non Patent Literature 28), and the metabolic reaction was initiated. At a designated time, 0.1% formic acid-acetonitrile/water (3:1) was added thereto, and the reaction was terminated.
The sample after termination of the reaction was separated by centrifugation (1400 g, 20 min.), and then the supernatant was measured by LC/MS (UPLC-SQD (waters)) to calculate a residual ratio of unreacted substances.

mouse RORγ = biological target: T1, mouse RORγ (Mus musculus, UniProt P51450); experiment: Reporter gene assay for inhibitory effect against RORγ transcriptional activity (GAL4-mRORγ LBD, luciferase, CHO cells); type: cell-based; details: pFA/mRORγ + pG5-Luc, 2 days incubation
T1 construct: from Ile251 to Lys516 for mouse RORγ; expressed in transfected cells; host or cells: CHO cells (transient co-transfection with pG5-Luc)
T1 sequence (P51450 251-516): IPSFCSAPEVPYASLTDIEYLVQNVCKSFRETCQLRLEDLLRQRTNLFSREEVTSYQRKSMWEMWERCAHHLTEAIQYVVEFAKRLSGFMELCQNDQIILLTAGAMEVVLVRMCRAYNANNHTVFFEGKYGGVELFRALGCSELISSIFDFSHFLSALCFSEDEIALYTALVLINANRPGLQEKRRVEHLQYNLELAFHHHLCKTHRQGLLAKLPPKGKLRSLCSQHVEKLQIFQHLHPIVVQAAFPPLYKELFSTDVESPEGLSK
Description: Inhibitory effect against RORγ transcriptional activity was assessed by reporter gene assay for test compounds.
cDNAs encoding human and mouse RORγ ligand binding domains (LBD) were obtained based on the sequences of human RORγ (Genbank registered number NM_005060.3) and mouse RORγ (Genbank registered number NM_011281.2) (LBD sequences: from Ser253 to Lys518 for human RORγ; from Ile251 to Lys516 for mouse RORγ).
LBD cDNAs of human and mouse RORγ were inserted into pFA-CMV vector (Agilent Technologies, Inc.), which expresses GAL4-DNA binding domain fusion protein. The resulting plasmids are hereinafter referred to as pFA/hRORγ plasmid and pFA/mRORγ plasmid, respectively. […]
Cell viability was tested by luminescence method with CellTiter-Glo (Promega). […] Ten minutes after the addition, luminescence was measured for each well with a microplate reader. The luminescence count in the cells treated with 0.2% DMSO alone was defined as 100%, and the cell viability after treatment with the test compound was calculated as a percentage (%-of-control) based on the value of 0.2% DMSO alone. When the cell viability was 70% or less, a test compound was assessed to have cytotoxicity.
RORγ transcriptional activity was detected as the intracellular luciferase activity using SteadyLite HTS Reporter Gene Assay System (Perkin Elmer). […]

SMILES	Metabolic stability in liver microsomes at 60 min., Mouse [1] [%]	EC50 (mouse RORγ) [nM]
CC(C)C1=CN(C23CC(C(=O)O)(C2)C3)C(=O)N[C@@]1(C)c1ccc([C@@H]2C[C@H]2C(C)(C)C)c(Cl)c1 [Compound (1), 3-{(S)-4-[4-((1R,2R)-2-tert-Butyl-cyclopropyl)-3-chloro-phenyl]-5-isopropyl-4-methyl-2-oxo-3,4-dihydro-2H-pyrimidin-1-yl}bicyclo[1.1.1]pentane-1-carboxylic acid]	95	23
CC[C@H](C)C1=CN(C23CC(C(=O)O)(C2)C3)C(=O)N[C@@]1(C)c1ccc([C@@H]2C[C@H]2C(C)(C)C)c(Cl)c1 [Compound (2), 3-{(S)-5-((S)-sec-Butyl)-4-[4-((1R,2R)-2-tert-butyl-cyclopropyl)-3-chloro-phenyl]-4-methyl-2-oxo-3,4-dihydro-2H-pyrimidin-1-yl}bicyclo[1.1.1]pentane-1-carboxylic acid]	98	29
